Measurements as given in US9056108B2, “Method of treating atrial fibrillation” (Gilead Sciences, Inc., priority 2009, dated 2015).
Like-named read-outs stand apart in the source and are kept apart here.

Key:
[1] = system: female rabbit isolated heart treated with E-4031; experiment: Torsades de pointes in rabbit isolated heart treated with E-4031; conditions: E-4031 60 nM
Protocol: Each rabbit was sedated using intramuscular injections of 6 mg/kg xylazine and 40 mg/kg ketamine and then anesthetized using a “cocktail” of ketamine (15 mg/kg)+xylazine (4 mg/kg) in 1.5 ml saline. The ketamine/xylazine cocktail was administered as an i.v. bolus via the marginal ear vein. After anesthesia was confirmed, the thorax was opened and the heart was quickly excised. The heart was placed in a modified Krebs-Henseleit (K-H) physiological saline solution at room temperature. […] CPP was measured (with a Biopac MP 150 pressure transducer, Goleta, Calif.) from a side port of the aortic catheter. To facilitate exit of fluid from the chamber of the left ventricle (LV), the leaflets of the mitral valve were trimmed with fine spring-handled scissors. The right atrial wall was partially removed.
Complete AV block was induced by thermo-ablation of the AV nodal area. […] A bipolar Teflon-coated electrode was placed on the right ventricular septum to pace the heart. Electrical stimuli 3 ms in width and 3-fold threshold amplitude were delivered to the pacing electrode at a frequency of 1 Hz throughout the experiments using a Grass S48 stimulator (W. Warwick, R.I.).
After initiation of ventricular pacing, a 30-40 min equilibration delay was allowed for heart rate (and CPP) to achieve a steady state, an essential experimental condition for recording a good quality monophasic action potential (MAP) recording.
Monophasic action potential (MAP) and ECG electrodes from Harvard Apparatus Inc. (Holliston, Mass.) were used to record heart rate (in beats per minute, or bpm), left ventricular MAPs and a bipolar ECG MAP electrodes were pressure contact Ag—AgCl cells attached to a circular holder with springs to keep the electrodes in contact with the LV epicardial surface. Two MAP electrodes were placed on the epicardial ventricular free wall below the level of the atrial-ventricular valves, one at the base to record a basal MAP and one at the apex to record an apical MAP. […] Signals were saved on a computer hard disk for subsequent analysis. Bipolar electrocardiograms (ECG) were generated using an isolated-heart ECG apparatus (Harvard Apparatus, Holliston, Mass.) attached to Biopac amplifier system.

[2] = system: rabbit isolated heart treated with acetylcholine; experiment: Electrically-induced atrial fibrillation in rabbit isolated heart treated with acetylcholine
Protocol: Each rabbit was sedated using intramuscular injections of 6 mg/kg xylazine and 40 mg/kg ketamine and then anesthetized using a “cocktail” of ketamine (15 mg/kg)+xylazine (4 mg/kg) in 1.5 ml saline. The ketamine/xylazine cocktail was administered as an i.v. bolus via the marginal ear vein. After anesthesia was confirmed, the thorax was opened and the heart was quickly excised. The heart was placed in a modified Krebs-Henseleit (K-H) physiological saline solution at room temperature. The K-H solution contained (in mmol/L): NaCl 118, KCl 2.8, KH2PO4 1.2, CaCl2 2.5, MgSO4 0.5, pyruvate 2.0, glucose 5.5, Na2EDTA 0.57 and NaHCO3 25. The solution was continuously gassed with 95% O2 and 5% CO2, and its pH was adjusted to 7.4. The aorta was rapidly catheterized and the heart was perfused by the method of Langendorff with K-H solution warmed to 36-36.5° C. at a rate of 20 mL/min with a roller pump (Gilson Minipuls3, Middleton, Wis.). CPP was measured (with a Biopac MP 150 pressure transducer, Goleta, Calif.) from a side port of the aortic catheter. To facilitate exit of fluid from the chamber of the left ventricle (LV), the leaflets of the mitral valve were trimmed with fine spring-handled scissors. The right atrial wall was partially removed. […]

patients with AF = conditions: DIONYSOS trial, 6 months of follow-up; cited from earlier work
[3] = cited from earlier work
[4] = system: isolated canine coronary-perfused right atria; experiment: Electrophysiology in isolated coronary-perfused canine right atrial preparations; conditions: in presence of ACh 1 μM, ranolazine 5 μM, dronedarone 10 μM
Protocol: Experiments were performed using isolated coronary-perfused canine right atrial (RA) and left ventricular (LV) preparations (≈3×1.5×1 cm). Isolation and perfusion of the preparations were as previously described.^9, 15, 16 Briefly, preparations were dissected from hearts removed from anesthetized (sodium pentobarbital) adult mongrel dogs (20-30 kg). Unfolded RA with attached rim of the right ventricle was cannulated and perfused with cold cardioplegic solution (4-8° C.) through the ostium of the right coronary artery; the LV wedge was perfused through a diagonal branch of the left anterior descending coronary artery. Unperfused tissue was removed with a razor blade. Cut ventricular and atrial branches were ligated using silk thread. The preparations were then transferred to a temperature-controlled bath and arterially-perfused with Tyrode's solution by use of a roller pump. The composition of the Tyrode's solution was (in mM): NaCl 129, KCl 4, NaH2PO4 0.9, NaHCO3 20, CaCl2 1.8, MgSO4 0.5, and D-glucose 5.5, buffered with 95% O2 and 5% CO2 (37±0.5° C., pH=7.35)
Transmembrane action potential (AP) recordings were obtained using floating glass microelectrodes at a sampling rate of 40 kHz. A pseudo-electrocardiogram (ECG) was recorded using two electrodes consisting of Ag/AgCl half cells placed in the Tyrode's solution bathing the preparation, 1.0 to 1.5 cm from the two opposite sides of the atrial or ventricular coronary-perfused preparations. Conduction time was approximated by the duration of “P wave” in atria and “QRS complex” in ventricles, at a level representing 10% of “P wave” and “QRS” amplitude. Diastolic threshold of excitation (DTE) was determined by increasing stimulus intensity in 0.01 mA steps. Effective refractory period (ERP) was measured by delivering premature stimuli at progressively shorter S1-S2 intervals after every 10 basic beats at a pacing cycle length (CL) of 500 ms (5 ms steps; 2 times DTE). Post-repolarization refractoriness (PRR) was recognized when ERP exceeded action potential duration measured at 90% repolarization (APD90) in the ventricle and APD measured at 70% repolarization (APD70) in atria. Ventricular ERP was coincident with APD90, whereas atrial ERP was generally coincident with APD70-75.^9 The shortest S1-S1 permitting 1:1 activation was measured by progressively shortening pacing CL starting from a CL of 500 ms.
Stable AP recordings could not be readily obtained in the vigorously contracting perfused preparations. The largest recorded maximum rate of rise of the AP upstroke (Vmax) values per experimental condition were taken for statistical comparison. Only APs having amplitudes of at least 100 mV were considered in the analysis. The largest Vmax criterion was used because this was associated with the largest amplitude and the most negative resting membrane potential, depicting full or near full impalement. In determining use-dependent depression of Vmax, values were normalized to the Vmax value at a CL of 500 ms for each experiment and then averaged.
Because of their dependence on peak INa, Vmax, DTE, PRR, and conduction time as well the shortest S1-S1 interval permitting 1:1 activation are referred to as INa-dependent parameters.
The equilibration period for the coronary-perfused preparations was 30-120 min. The preparations were exposed to 5 μM ranolazine, 10 μM dronedarone (after 30 min washout of ranolazine), and the combination of these agents for at a period of at least 20 min. In time-control experiments, 20 minutes was sufficient to achieve steady-state in the effects of each of the drugs to alter electrophysiologic parameters. Recordings were obtained at a cycle length (CL) of 500 and 300 ms, unless otherwise indicated. […] When determining the shortest S1-S1 pacing rate permitting 1:1 activation, the stimulation intensity was DTE x 2, determined at a CL of 500 ms.

[5] = system: ACh-mediated persistent AF in isolated canine coronary-perfused right atria; experiment: Acetylcholine (ACh)-mediated persistent AF model in coronary-perfused right atria; conditions: ranolazine 5 μM, dronedarone 10 μM
Protocol: To assess the anti-AF potential of ranolazine, dronedarone, and their combination, we used an acetylcholine (ACh, 1.0 μM)-mediated AF model. In the presence of ACh, premature electrical stimulation (PES) or rapid pacing (CL=50-80 ms) induces persistent AF in 100% of canine coronary-perfused right atrial preparations.^9 The effect of the drugs was assessed to prevent (series 1) the induction of AF. In a separate set of preparations, the ability of these agents was evaluated to terminate (series 2) persistent AF. In the first series, ACh was added to the perfusate 20-30 min after the start of perfusion with 5 μM ranolazine, 10 μM dronedarone, or the combination of these agents. This was followed by attempts to induce the arrhythmia electrically. In the second series, the agents were added to the perfusate during ACh-mediated persistent AF (on the 5-6th minutes after the start of the arrhythmia). In cases in which the drug terminated AF, we attempted to re-induce the arrhythmia with rapid pacing.

[6] = system: spontaneous (intrinsic) atrial rate in guinea pig isolated hearts; experiment: Spontaneous atrial rate in guinea pig isolated hearts; conditions: verapamil 10 μM; from 225±3
Text: To perfuse the heart by the Langendorff method, the transected aorta was slid onto a glass cannula and secured by a ligature. […] To facilitate the exit of fluid from the left ventricle, the leaflets of the mitral valve were trimmed with fine spring-handled scissors. […] Experimental interventions were always preceded and followed by control measurements.

[7] = ACh 1 μM-mediated persistent AF

Cc1cccc(CCN2CCC(C(=O)c3ccc(NS(C)(=O)=O)cc3)CC2)n1 [E-4031, N-[4-[[1-[2-(6-Methyl-2-pyridinyl)ethyl]-4-piperidinyl]carbonyl]phenyl]methanesulfonamide]
Occurrences of torsades de pointes (TdP) (hearts) ([1]; dronedarone 10 μM): 4/6
TdP (FIG. 18) ([1]; dronedarone 0.1-0.3 μM): induced spontaneous and 3-sec pause-triggered episodes of TdP
Incidence of TdP and EADs ([1]; dronedarone 0.3-10 μM, ranolazine 6 and 10 μM): markedly increased the incidence of torsades de pointes

O=C(NCC1CCCCN1)c1cc(OCC(F)(F)F)ccc1OCC(F)(F)F (stereo not shown) [Flecainide]
Abolition of inducible AF (hearts) ([2]; in presence of ACh, dronedarone 0.3 μM alone, flecainide positive control): abolished all episodes of AF

CCCCc1oc2ccccc2c1C(=O)c1cc(I)c(OCCN(CC)CC)c(I)c1 [amiodarone]
Rate of recurrence of AF (patients with AF): 42%
Patients who discontinue use due to intolerant side effects ([3]; after one year): 8-18%
Extracardiac complications ([3]; first year of treatment): up to 15%
Extracardiac complications ([3]; longer term treatment): up to 50%

CC(=O)OCC[N+](C)(C)C [ACh, Acetylcholine]
Shortest S1-S1 (shortest CL permitting 1:1 activation) ([4]; in ms (unit assumed)): 56 ± 7
APD90 ([4]; pectinate muscle, CL of 500 ms): 41 ± 6 ms
ERP ([4]; pectinate muscle, CL of 500 ms): 52 ± 9 ms
Termination Persistent AF [5, 7]: 0%
Termination Persistent AF (atria terminated/atria tested) [5, 7]: 0/10
Induction of Persistent AF ([5]; in presence of ACh 1 μM): 100%
Inducibility of AF ([2]; S1S2 protocol, acetylcholine 0.6-1 μM, ranolazine 6 μM in presence of 0.3 μM dronedarone): 100%

COc1ccc(CCN(C)CCCC(C#N)(c2ccc(OC)c(OC)c2)C(C)C)cc1OC (stereo not shown) [verapamil]
Spontaneous atrial rate [6]: 25±24 beats/min
